Drawing on patent US9957264B2 (Merck Sharp & Dohme Corp., priority 2013, dated 2018), this text covers IC50 for 19 molecules.

Sequence of JAK1 (recombinant purified GST-tagged catalytic domain) (P23458 875-1153): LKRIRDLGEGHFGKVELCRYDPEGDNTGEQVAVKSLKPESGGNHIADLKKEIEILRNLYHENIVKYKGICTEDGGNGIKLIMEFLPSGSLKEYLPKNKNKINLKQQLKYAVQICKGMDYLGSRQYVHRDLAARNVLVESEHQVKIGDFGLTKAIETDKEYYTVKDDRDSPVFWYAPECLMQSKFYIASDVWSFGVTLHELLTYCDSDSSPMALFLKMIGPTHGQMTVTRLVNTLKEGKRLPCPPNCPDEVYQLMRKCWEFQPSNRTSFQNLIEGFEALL

In this assay the target is JAK1 (recombinant purified GST-tagged catalytic domain) (Homo sapiens (Human), UniProt P23458). Kind of assay: Jak Biochemical HTRF Assay (JAK1). As to conditions: [ATP] 31.8 μM. The protocol:
Jak Biochemical HTRF Assay Protocol
The ability of compounds to inhibit the activity of JAK1, JAK2, JAK3, and Tyk2 was measured using a recombinant purified GST-tagged catalytic domain for each enzyme (Invitrogen JAK1 #M4290, JAK2 #M4290, JAK3 #M4290, Tyk2 #M4290) in an HTRF format biochemical assay. The reactions employed a common peptide substrate, LCB-[…]-NH2 (in-house). The basic assay protocol is as follows: First, 250 nL of diluted compounds in DMSO were dispensed into the wells of a dry 384-well Black plate (Greiner #781076) using a Labcyte Echo 555 acoustic dispenser. Subsequent reagent additions employed an Agilent Bravo. […] After equilibration, 2 μL of 10×ATP in 1× assay buffer was added to initiate the kinase reaction and the plates were shaken and then incubated at room temperature for 120 minutes. At the end of the incubation, 20 μL of 2× stop buffer (streptavidin-Dylight 650 (Thermo #84547B/100 mL), Eu-tagged pY20 antibody (Perkin Elmer #AD0067), EDTA, HEPES, and Triton) was added to quench the reaction. Plates were shaken and centrifuged and then incubated 60 minutes at room temperature and then read on a Perkin Elmer Envision (λex=337 nm, λem=665 and 615 nm, TRF delay time=20 μs). HTRF signal=10,000*665 nm reading/615 nm reading. After normalization to untreated controls, the percent inhibition of the HTRF signal at each compound concentration was calculated. The plot of percent inhibition versus the log of compound concentration was fit with a 4-parameter dose response equation to calculate IC50 values.
Final reaction conditions were:
Examples of the instant invention were evaluated in JAK1 and JAK2 in vitro binding assays as described above. The following table tabulates the JAK1 IC50 values and JAK2 IC50 values disclosed for the instant invention.
Turning to `Cc1ccc(CN2CCC(CC#N)(n3nc(Nc4ccc(S(=O)(=O)N(C)C)cc4)c4c(=O)[nH]ccc43)CC2)cc1` [Example 8-2, 4-({1-[4-(cyanomethyl)-1-(4-methylbenzyl)piperidin-4-yl]-4-oxo-4,5-dihydro-1H-pyrazolo[4,3-c]pyridin-3-yl}amino)-N,N-dimethylbenzenesulfonamide], the IC50 was found to be 0.44 nM.
With `CC(C)(C)N1Cc2cc(Nc3nn([C@]4(CC#N)CCCOC4)c4cc[nH]c(=O)c34)ccc2S1(=O)=O` [Example 5-178, [(3S)-3-{3-[(2-tert-butyl-1,1-dioxido-2,3-dihydro-1,2-benzisothiazol-5-yl)amino]-4-oxo-4,5-dihydro-1H-pyrazolo[4,3-c]pyridin-1-yl}tetrahydro-2H-pyran-3-yl] acetonitrile], the half-maximal inhibitory concentration (IC50) came out at 0.04 nM.
For `COC(=O)c1ccc(Nc2nn(C3(CC#N)CN(C(=O)OC(C)(C)C)C3)c3cc[nH]c(=O)c23)cc1` [Example 4-2, tert-butyl 3-(cyanomethyl)-3-(3((4(methoxycarbonyl)phenyl)amino)-4-oxo-4,5-dihydro-1H-pyrazolo[4,3-c]pyridin-1-yl)azetidine-1-carboxylate], the IC50 came to 2.47 nM.
As for `CN(C)S(=O)(=O)c1ccc(Nc2nn([C@@]3(CC#N)CCCC[C@H]3F)c3cc[nH]c(=O)c23)cc1` [Example 5-234, 4-({1-[(1R,2R)-1-(cyanomethyl)-2-fluorocyclohexyl]-4-oxo-4,5-dihydro-1H-pyrazolo [4,3-c]pyridin-3-yl}amino)-N,N-dimethyl-benzenesulfonamide], the half-inhibitory concentration (IC50) is 0.63 nM.
On to `CC(C)(C)OC(=O)[C@H]1CC[C@](CC#N)(n2nc(Nc3ccc4c(c3)CN(C(C)(C)C)S4(=O)=O)c3c(=O)[nH]ccc32)CO1` [Example 5-42, (2R,5R)-tert-butyl 5-(3-((2-(tert-butyl)-1,1-dioxido-2,3-dihydrobenzo[d]isothiazol-5-yl)amino)-4-oxo-4,5-dihydro-1H-pyrazolo[4,3-c]pyridin-1-yl)-5-(cyanomethyl)tetrahydro-2H-pyran-2-carboxylate], for which the IC50 stood at 1.6 nM.
In the case of `Cc1cc(Nc2nn([C@]3(CC#N)CC[C@@H](C(=O)OC(C)(C)C)OC3)c3cc[nH]c(=O)c23)ccc1C(=O)N1CCSC(C)C1` (single isomer, unassigned) [Example 5-159, (2S,5S)-tert-butyl 5-(cyanomethyl)-5-(3-((3-methyl-4-((S or R)-2-methylthiomorpholine-4-carbonyl)phenyl)amino)-4-oxo-4,5-dihydro-1H-pyrazolo[4,3-c]pyridin-1-yl)tetrahydro-2H-pyran-2-carboxylate], the IC50 came to 0.24 nM.
Regarding `CC(C)(C)OC(=O)[C@@H]1CC[C@@](CC#N)(n2nc(Nc3ccc(C(O)(C(C)(C)C)C(F)(F)F)cc3)c3c(=O)[nH]ccc32)CO1` (single isomer, unassigned) [Example 5-166, (2S,5S)-tert-butyl 5-(cyanomethyl)-5-(4-oxo-3-((4-((S or R)-1,1,1-trifluoro-2-hydroxy-3,3-dimethylbutan-2-yl)phenyl)amino)-4,5-dihydro-1H-pyrazolo[4,3-c]pyridin-1-yl)tetrahydro-2H-pyran-2-carboxylate], the IC50 worked out at 1.28 nM.
As to `CCC(=O)N1CCC(CC#N)(n2nc(Nc3ccc(S(=O)(=O)N(C)C)cc3)c3c(=O)[nH]ccc32)CC1` [Example 9-1, 4-({1-[4-(cyanomethyl)-1-propanoylpiperidin-4-yl]-4-oxo-4,5-dihydro-1H-pyrazolo[4,3-c]pyridin-3-yl}amino)-N,N-dimethylbenzenesulfonamide], the IC50 is 0.11 nM.
As to `CCOC(=O)C(C)(C)N(C)S(=O)(=O)c1ccc(Nc2nn(C3(CC#N)CCCC3)c3cc[nH]c(=O)c23)cc1` [Example 5-139, ethyl 2-(4-((1-(1-(cyanomethyl)cyclopentyl)-4-oxo-4,5-dihydro-1H-pyrazolo[4,3-c]pyridin-3-yl)amino)-N-methylphenylsulfonamido)-2-methylpropanoate], the half-inhibitory concentration (IC50) turned out to be 0.76 nM.
With `CN(C)S(=O)(=O)c1ccc(Nc2nn(C3(CC#N)CCN(Cc4cccc5[nH]ccc45)CC3)c3cc[nH]c(=O)c23)cc1` [Example 8-16, 4-({1-[4-(cyanomethyl)-1-(1H-indol-4-ylmethyl)piperidin-4-yl]-4-oxo-4,5-dihydro-1H-pyrazolo[4,3-c]pyridin-3-yl}amino)-N,N-dimethylbenzenesulfonamide] the figure was 1.54 nM; with `Cc1cc(Nc2nn([C@]3(CC#N)CC[C@@H](C(=O)OC(C)(C)C)OC3)c3cc[nH]c(=O)c23)ccc1C(=O)N1CCSC(C)C1` (single isomer, unassigned) [Example 5-158, (2S,5S)-tert-butyl 5-(cyanomethyl)-5-(3-((3-methyl-4-((S or R)-2-methylthiomorpholine-4-carbonyl)phenyl)amino)-4-oxo-4,5-dihydro-1H-pyrazolo[4,3-c]pyridin-1-yl)tetrahydro-2H-pyran-2-carboxylate], 0.28 nM; with `Cc1cc(Nc2nn([C@]3(CC#N)CC[C@@H](C(=O)OC(C)(C)C)OC3)c3cc[nH]c(=O)c23)ccc1C(=O)N1CCSCC1` [Example 20-6, (2S,5S)-tert-butyl 5-(cyanomethyl)-5-(3-((3-methyl-4-(thiomorpholine-4-carbonyl)phenyl)amino)-4-oxo-4,5-dihydro-1H-pyrazolo[4,3-c]pyridin-1-yl)tetrahydro-2H-pyran-2-carboxylate], 0.13 nM.
With `CC(C)(C)N1Cc2cc(Nc3nn([C@@]4(CC#N)CCOC[C@H]4F)c4cc[nH]c(=O)c34)ccc2C1=O` (single isomer, unassigned) [Example 5-260, 2-((3S,4S or 3R,4R)-4-(3-(2-tert-butyl-1-oxoisoindolin-5-ylamino)-4-oxo-4,5-dihydropyrazolo[4,3-c]pyridin-1-yl)-3-fluoro-tetrahydro-2H-pyran-4-yl)acetonitrile] the figure was 0.26 nM; with `CC1(C)Cc2cc(Nc3nn([C@]4(CC#N)CCCOC4)c4cc[nH]c(=O)c34)ccc2C1(O)C(F)(F)F` (single isomer, unassigned) [Example 5-119, 2-((S)-3-(3-(((S or R)-1-hydroxy-2,2-dimethyl-1-(trifluoromethyl)-2,3-dihydro-1H-inden-5-yl)amino)-4-oxo-4,5-dihydro-1H-pyrazolo[4,3-c]pyridin-1-yl)tetrahydro-2H-pyran-3-yl)acetonitrile], 0.15 nM; with `Cc1cc(Nc2nn([C@]3(CC#N)CC[C@@H](C(=O)OC(C)(C)C)OC3)c3cc[nH]c(=O)c23)ccc1C(=O)N1CCC(O)(C(F)(F)F)C1` (single isomer, unassigned) [Example 5-160, (2S,5S)-tert-butyl 5-(cyanomethyl)-5-(3-((4-((S or R)-3-hydroxy-3-(trifluoromethyl)pyrrolidine-1-carbonyl)-3-methylphenyl)amino)-4-oxo-4,5-dihydro-1H-pyrazolo[4,3-c]pyridin-1-yl)tetrahydro-2H-pyran-2-carboxylate], 0.22 nM.
On to `CC(C)S(=N)(=O)c1ccc(Nc2nn([C@]3(CC#N)CC[C@@H](C(=O)OC(C)(C)C)OC3)c3cc[nH]c(=O)c23)cc1` (single isomer, unassigned) [Example 5-230, (2S,5S)-tert-butyl 5-(cyanomethyl)-5-(4-oxo-3-((4-(propan-2-yl-(S or R)-sulfonimidoyl)phenyl)amino)-4,5-dihydro-1H-pyrazolo[4,3-c]pyridin-1-yl)tetrahydro-2H-pyran-2-carboxylate], for which the IC50 worked out at 0.12 nM.
With `CC1(C)Cc2cc(Nc3nn([C@]4(CC#N)CCCOC4)c4cc[nH]c(=O)c34)ccc2C1(O)C(F)(F)F` (single isomer, unassigned) [Example 5-120, 2-((S)-3-(3-((S or R)-1-hydroxy-2,2-dimethyl-1-(trifluoromethyl)-2,3-dihydro-1H-inden-5-yl)amino)-4-oxo-4,5-dihydro-1H-pyrazolo[4,3-c]pyridin-1-yl)tetrahydro-2H-pyran-3-yl)acetonitrile] the figure was 0.07 nM; with `CC(C)(C)N1Cc2cc(Nc3nn(C4(CC#N)CCCC4)c4cc[nH]c(=O)c34)ccc2S1(=O)=O` [Example 5-121, 2-(1-(3-((2-(tert-butyl)-1,1-dioxido-2,3-dihydrobenzo[d]isothiazol-5-yl)amino)-4-oxo-4,5-dihydro-1H-pyrazolo[4,3-c]pyridin-1-yl)cyclopentyl)acetonitrile], 0.04 nM.
With `CC(C)NS(=O)(=O)c1ccc(Nc2nn(C3(CC#N)CCN(C(=O)OC(C)(C)C)CC3)c3cc[nH]c(=O)c23)cc1` [Example 5-288, tert-butyl 4-(cyanomethyl)-4-(3-((4-(N-isopropylsulfamoyl)phenyl)amino)-4-oxo-4,5-dihydro-1H-pyrazolo[4,3-c]pyridin-1-yl)piperidine-1-carboxylate], the half-inhibitory concentration (IC50) came to 0.15 nM.
